Source: patent US4912092A, “Methods for increasing extracellular adenosine and for stabilizing mast cells” (The Regents of the University of California, priority 1987, dated 1990)

Legend:
[1] = target: T1, AMP deaminase (Homo sapiens, UniProt Q01433); assay: Inhibition of AMP deaminase (14C-AMP to 14C-IMP conversion); format: biochemical
T1 construct: endogenous in cells
T1 sequence (Q01433 1-825): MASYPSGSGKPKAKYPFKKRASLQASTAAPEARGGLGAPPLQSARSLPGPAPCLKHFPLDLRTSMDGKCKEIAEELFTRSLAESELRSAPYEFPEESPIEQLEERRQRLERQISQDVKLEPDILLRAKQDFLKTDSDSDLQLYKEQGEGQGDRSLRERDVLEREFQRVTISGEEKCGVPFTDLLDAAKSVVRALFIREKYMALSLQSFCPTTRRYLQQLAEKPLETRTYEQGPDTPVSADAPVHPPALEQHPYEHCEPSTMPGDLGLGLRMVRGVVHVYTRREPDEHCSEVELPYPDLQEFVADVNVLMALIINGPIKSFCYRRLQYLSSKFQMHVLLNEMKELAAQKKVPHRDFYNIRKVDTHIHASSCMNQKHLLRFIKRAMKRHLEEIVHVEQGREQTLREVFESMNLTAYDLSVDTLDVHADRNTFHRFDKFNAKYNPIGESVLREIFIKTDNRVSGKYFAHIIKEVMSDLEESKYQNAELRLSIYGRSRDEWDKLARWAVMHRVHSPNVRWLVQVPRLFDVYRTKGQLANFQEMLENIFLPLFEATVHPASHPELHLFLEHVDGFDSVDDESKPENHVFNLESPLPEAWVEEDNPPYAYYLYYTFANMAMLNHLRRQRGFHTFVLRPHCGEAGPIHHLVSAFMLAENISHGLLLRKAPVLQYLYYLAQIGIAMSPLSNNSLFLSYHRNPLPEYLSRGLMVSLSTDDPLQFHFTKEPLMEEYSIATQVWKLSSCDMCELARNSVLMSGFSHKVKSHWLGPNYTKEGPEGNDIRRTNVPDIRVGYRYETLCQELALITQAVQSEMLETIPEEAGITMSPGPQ
Method: The phosphorylated forms are referred to as AICA ribotide and ribavirin monophosphate, respectively. Using 200 μM of each ribotide, AMP deaminase was inhibited 38% and 54%, respectively.

[2] = tested on: granulocytes and endothelial cells; assay: Granulocyte/endothelial cell interaction, intravital microscopy of mesentery microvessels; format: in vivo, rat; conditions: superfusion with 20 μM, approximately 2 μM in the vessel
Method: The parameter measured was the fracture stress between the two cell types.
These studies were performed by intravital microscopy filming of granulocytes in rat mesentary microvessels. The rolling velocity of granulocytes compared to the streaming velocity of red cells was calculated before and after the administration of adenosine.

[3] = tested on: Mouse bone marrow-derived mast cells; format: cell-based
Method: By preventing mast cell degranulation, it is possible to prevent or control a patient's allergic response. Bone marrow obtained from Balb/C mice femurs was cultured in a 1:1 mixture of Razin media and conditioned media, produced by co-culturing splenocytes from C57B1/6J and C3H mice in the presence of Concanavalin A as described by Razin et al. in the Proc. Natl. Acad. Sci. USA 28: 2559-2561, 1981. After weekly passaging and at least 15 days in tissue culture, the resulting cells were 90% pure mast cells and 95% viable as assessed by Trypan blue exclusion. Cells exposed to ribavirin in culture were washed three times prior to use in experiments. Parallel cultures of cells grown in media alone were used as controls for pharmacologically manipulated mast cells. Cell growth was assessed by counting cells at particular time points and comparing actual numbers of ribavirin-treated cells to numbers of cells grown in media alone.
β-hexosaminidase was chosen as a representative granule-associated, preformed mast cell mediator because it is easily quantitated, and its release nearly identically parallels that of histamine. Mouse bone marrow-derived mast cells were centrifuged at 200×g for 5 minutes, washed three times in Tyrode's buffer lacking divalent cations, sensitized for 30 minutes at 37° C. with anti-DNP ([…]) IgE (1 μg/10^6 cells) and challenged with either DNP-BSA antigen (175 ng/3×10^5 cells) or A23187 (10 μg/ml/3×10^5 cells) in 400 μl of complete Tyrode's buffer for 10 minutes at 37° C. Reaction mixtures were centrifuged at 200×g for 10 minutes, and supernatant and pellet β-hexosaminidase concentrations were assayed by the hydrolysis of p-nitrophenyl-β-D-glucosamide as described in Schwartz et al. in J. Immunol. […] Spontaneous β-hexosaminidase release was determined in unchallenged cells. The net % of β-hexosaminidase released is defined as follows: [formula] where [β-hex] is β-hexosaminidase and super. is supernatant. When exogenous adenosine was present in reaction mixtures, it was added simultaneously with the secretagogue.

[4] = tested on: human splenic lymphoblast cell line (WI-L2); assay: Adenosine excretion by human lymphoblasts during ATP breakdown (2-deoxyglucose); format: cell-based; conditions: three-hour preincubation and four-hour incubation during 2-deoxyglucose treatment (FIGS. 8, 9)
Method: (§1) The history and properties of the cell line have been described by Hershfield et al. in Science, Vol. 197, p. 1284, 1977.
(§2) Catabolism of cellular ATP stores was stimulated by adding either 2-deoxyglucose or a calcium ionophore. At various times, the amount of adenosine released by the cells into the supernatant, or the amount of nucleotides remaining in the cells, was determined by mixing 30 μl of chilled 4.4N perchloric acid with 300 μl of supernatants, or by adding 300 μl of chilled 0.4N perchloric acid to the cells collected as pellets and centrifuging the mixtures at 500×G for 10 minutes at 4° C. […] 1245, 1975. Following centrifugation at 1500×G for three minutes at 4° C., the aqueous phase is removed and frozen at -20° C. until assayed for adenosine, inosine, or for nucleotides. Adenosine was evaluated isocratically on a C-18 microBondapak reverse phase column equilibrated with 4 millimolar potassium phosphate, (pH 3.4):acetonitrile 60% in water (95:5 v/v) buffer. Adenosine elutes at 8-10 minutes, and its identity was confirmed by its sensitivity to adenosine deaminase and by spiking with adenosine standards. The extracted samples from the cell pellet were analyzed for nucleotides by high pressure liquid chromatography on a Whatman Partisil-10 (SAX) column equilibrated with 10 millimolar potassium phosphate, pH 3.78, and eluted with a linear gradient to a 0.25 molar potassium phosphate, 0.5 molar KCl, pH 3.45. […] Peaks were quantitated by comparison with high pressure liquid chromatography analysis of suitable standards.
Cells were grown to about 0.5×10^6 cells/ml (mid-log phase) in FIG. 2 and to about 1.0×10^6 cells/ml (early stationary phase) in FIGS. 7-9.

[5] = tested on: HPRT- neuroblastoma cells; assay: Adenosine excretion by ionophore-stimulated HPRT- neuroblastoma cells; format: cell-based; conditions: pretreatment
Method: as §1, §2
To induce ATP catabolism, the growth medium was replaced by medium containing micromolar amounts of the calcium ionophore A23187 and 1.0 μM deoxycoformycin.

SMILES: NC(=O)c1ncn([C@@H]2O[C@H](COP(=O)(O)O)[C@@H](O)[C@H]2O)c1N [AICA ribotide]
- inhibition at 200 µM ([1]; read-out: AMP deaminase inhibited): 38%

SMILES: Nc1ncnc2c1ncn2[C@@H]1O[C@H](CO)[C@@H](O)[C@H]1O [Adenosine, 9-β-D-ribofuranosyladenine]
- decrease of fracture stress between granulocytes and endothelial cells [2]: by a factor of two
- rolling velocity of granulocytes in microvessels [2]: twofold increase

SMILES: NC(=O)c1ncn([C@@H]2O[C@H](COP(=O)(O)O)[C@@H](O)[C@H]2O)n1 [ribavirin monophosphate]
- AMP deaminase inhibited ([1]; 200 μM ribotide, cytoplasmic lysates from a human lymphoblast line): 54%

SMILES: NC(=O)c1ncn([C@@H]2O[C@H](CO)[C@@H](O)[C@H]2O)n1 [ribavirin, 1-β-D-ribofuranosyl-1H-1,2,4-triazole-3-carboxamide]
- mast cell mediator content and cell viability [3]: did not alter
- preformed mediator release ([3]; 1 μM for six days): inhibits mediator release significantly
- β-hexosaminidase release ([3]; 10 μM added at the time of mast cell stimulation): does not affect
- net β-hexosaminidase release versus controls ([3]; 1, 10, or 20 μM for six days, A23187 challenge (FIG. 11)): significantly less
- β-hexosaminidase release versus cells cultured in media alone ([3]; three to seven days in 10 μM, washed, A23187 challenge (FIG. 10), p<0.05): marked attenuation
- spontaneous release of β-hexosaminidase versus control cells ([3]; unchallenged cells): similar
- adenosine release from lymphoblasts [4]: increased adenosine release
- correction of the twofold lower adenosine secretion of HPRT-deficient cells [5]: can be corrected by pretreatment
